For data set [1] the following is noted: rat, in vivo, po, 250 mg/kg.
Data set [2] has as its system rat model of streptozotocin-induced diabetes. Description: Blood glucose levels in rat model of streptozotocin-induced diabetes, 14 days oral. As to conditions: for Blood glucose levels before TI/RI administration, Day −3 (before STZ administration): rats, baseline before STZ and before first TI/RI administration.
For data set [3] the following is noted: STZ-diabetic male rats, mean ± SD; for Absolute body weight, Day −3 (before STZ administration): baseline before STZ and before first TI/RI administration; for Absolute body weight, Day −1 / Absolute body weight, Day −2 (distribution of groups): before first TI/RI administration.
Data set [4] has as its system blood glucose level. Description: Effect of metformin compounds on the glucokinetic profile after oral glucose overload. Type of data set: in vivo, Rat. As to conditions: for blood glucose level vs vehicle, after the oral glucose overload: 750 mg/kg for five days, glucose 3 g/kg, isolated time points 0.25-4 hours.
For data set [5] the following is noted: for Body weight (g) On administration day / Body weight (g) On distribution day / Body weight (g) On first administration day: Mean ± SD; for Body weight (g) On distribution day: before dosing.
The conditions of data set [6]: terms of European Pharmacopeia 7.0 section 5.11.
The test system of data set [7] is rat model of streptozotocin-induced diabetes. As to conditions: about 18 hours after last administration, fasted; Dunnet test.
The subject of data set [8] is GLUT4. Description: GPBP-1 and GLUT4 distribution in C2C12 cells (FIGS. 77 and 78). Type of data set: cell-based, Mice. The procedure:
FIG. 77. Effects of no treatment, insulin, SLN1, SLN1 and insulin, SLN10, and SLN10 and insulin on GPBP-1 and GLUT-4 distribution in non-fused C2C12 cells after a 30 minute treatment.
FIG. 78. C2C12 cells that expressed GLUT4-GFP constitutively were incubated with SLN1 or SLN10 10 mM, or with the corresponding vehicle (control), and GLUT4 distribution was analyzed by using immunofluorescence and confocal microscopy.

Data set [9] concerns C2C12 myotubes. Description: Glucose in C2C12 myotubes cultured with M1 macrophage conditioned medium. Type of data set: cell-based, Mice. As to conditions: macrophages treated with 10 mM; glucose adjusted to 100 mg/100 mL (FIG. 95). The procedure: FIG. 95. C2C12 myotubes, treated with a conditioned RAW264.7 M1 macrophages medium (stimulated with LPS and IFN-γ [M1]), accumulate glucose in the culture medium: SLN compounds reduce the “hyperglycemic” effect of the M1 medium. […]; then, the culture media were collected, and their glucose concentration adjusted to 100 mg/100 mL and used to culture C2C12 myoblasts that had been previously differentiated to myotubes in DMEM supplemented with 2% horse serum for 5 days. The glucose concentration in myotubes was determined at several times with a Glucocard (Arkray). C2C12 myotubes, cultured with conditioned media of non-stimulated (cells) macrophages, or similarly stimulated but not treated with a SLN (M1), were used as controls. The initial glucose levels (time 0) are used as a reference (100%) in each of the series.
[…]. Then the culture media were collected, their glucose concentration adjusted to 100 mg/100 mL and used to culture C2C12 myoblasts that had been previously differentiated to myotubes in DMEM supplemented with 2% horse serum for 5 days. The glucose concentration of the myotube cultures was determined at different times with Glucocard (Arkray). The controls used were the C2C12 cultured with media conditioned with no stimulated macrophages (cells) or with M1 conditioned media. The initial glucose levels (time 0) were used as a reference (100%) in each series.

Where [10] appears, read: rat, 750 mg/kg referred to metformin base, mean ± SD, *p<0.05 vs vehicle.
The mark [11] stands for this setting: rat, 750 mg/kg referred to metformin base, mean ± SD.
Setting [12] is: Groups L-U, 750 mg/kg, first column of this head.
The mark [13] stands for this setting: Groups L-U, 750 mg/kg, second column of this head.

By Cmax is commonly meant the highest concentration seen after dosing.

Like-named read-outs stand apart in the source and are kept apart here.

`CN(C)C(=N)NC(=N)N.C[C@H](N)C(=O)O` [Metformin alaninate, metformin alaninate]: in data set [1], the “AUC(0-24)” value came out at 126.09 µg·h/mL; the peak concentration (Cmax) came to 16400 ng/mL; the “Metformin base concentration in plasma, 0.5 h post-administration” value worked out at 14.77 ± 3.29 µg/mL; the “Metformin base concentration in plasma, 1 h post-administration” value was found to be 13.00 ± 1.39 µg/mL. In data set [1], the “Metformin base concentration in plasma, 2 h post-administration” value came out at 14.97 ± 3.57 µg/mL; the “Metformin base concentration in plasma, 4 h post-administration” value worked out at 16.40 ± 5.23 µg/mL; the “Metformin base concentration in plasma, 8 h post-administration” value amounted to 3.56 ± 1.19 µg/mL; the “Metformin base concentration in plasma, 24 h post-administration” value worked out at 0.22 ± 0.08 µg/mL. For the same compound, the “blood glucose levels 2 hours after administration on day 2 vs diabetic animals treated with vehicle” value in data set [2] (diabetic rats, 250 mg/kg as metformin base) is “significantly lower blood glucose levels”. Moreover, the “Blood glucose levels before TI/RI administration, Day −3 (before STZ administration)” value in data set [2] (mean ± SD) was 121.33 ± 6.51 mg/dL. Besides, in [3], the “Absolute body weight, Day −3 (before STZ administration)” value came out at 232.07 ± 6.17 g and the “Absolute body weight, Day −1” value stood at 208.00 ± 2.65 g. The “blood glucose level vs vehicle, after the oral glucose overload” value in data set [4] (Dunn's test) is on record as “statistically significant decreases”. In data set [4] (setting [10]), the “Blood glucose level, 0.25 h post-glucose overload” value is on record as 90.50 ± 13.72 mg/dL and the “Blood glucose level, pre-glucose overload” value came out at 82.25 ± 7.68 mg/dL. In [4] (setting [11]), the “Blood glucose level, 0.5 h post-glucose overload” value is 94.75 ± 13.52 mg/dL; the “Blood glucose level, 2 h post-glucose overload” value is 87.75 ± 9.00 mg/dL; the “Blood glucose level, 6 h post-glucose overload” value is 84.00 ± 7.83 mg/dL. Besides, the macroscopic necropsy findings entry in data set [5] (750 mg/kg for five days) is given as “small additional lobe”. In data set [5] (Groups B-K, 250 mg/kg), the “Body weight (g) On administration day” value was determined as 202.49 ± 12.79 g and the “Body weight (g) On distribution day” value is 187.52 ± 10.28 g. In addition, the “Body weight (g) On distribution day” value in data set [5] (Groups L-U, 750 mg/kg) turned out to be 186.18 ± 8.04 g. The “Body weight (g) On first administration day” value in [5] (setting [12]) is 200.80 ± 10.15 g. The “Body weight (g) On first administration day” value in data set [5] (setting [13]) worked out at 195.43 ± 11.23 g. Further, the “Physical form (hygroscopicity)” value in data set [6] (listed as 13. ALANINE) is “Hygroscopic solid”. In addition, the “Physical form (hygroscopicity)” value in data set [6] (listed as alanine) is reported as “hygroscopic”.
For `CN(C)C(=N)NC(=N)N.NC(=O)C[C@H](N)C(=O)O` [Metformin asparaginate, metformin asparaginate], the “plasma glucose levels at the time of sacrifice” value in data set [7] is recorded as “significantly higher”. Further, in data set [1], the “AUC(0-24)” value was 153.76 µg·h/mL; the “Cmax” value was determined as 16270 ng/mL; the “Metformin base concentration in plasma, 0.5 h post-administration” value was 10.72 ± 2.33 µg/mL; the “Metformin base concentration in plasma, 1 h post-administration” value was 8.40 ± 1.12 µg/mL. Also, in [1], the “Metformin base concentration in plasma, 2 h post-administration” value was found to be 9.74 ± 1.24 µg/mL; the “Metformin base concentration in plasma, 4 h post-administration” value was found to be 16.27 ± 2.89 µg/mL; the “Metformin base concentration in plasma, 8 h post-administration” value is 7.56 ± 1.49 µg/mL; the “Metformin base concentration in plasma, 24 h post-administration” value was found to be 0.39 ± 0.13 µg/mL. Further, the “Blood glucose levels before TI/RI administration, Day −1” value in data set [2] (STZ-diabetic rats, before first TI/RI administration, mean ± SD, n.d. = all values beyond ULOD of glucometer (600 mg/dl), § n=1, ¢ n=2) is 573.00^§ ± n.d.^§ mg/dL. The “Blood glucose levels before TI/RI administration, Day −3 (before STZ administration)” value in data set [2] (mean ± SD) stood at 116.33 ± 5.51 mg/dL. Also, in data set [3], the “Absolute body weight, Day −3 (before STZ administration)” value was 233.47 ± 15.23 g; the “Absolute body weight, Day −1” value turned out to be 209.73 ± 12.66 g; the “Absolute body weight, Day −2 (distribution of groups)” value was determined as 214.13 ± 12.67 g. Besides, the “blood glucose level vs vehicle, after the oral glucose overload” value in [4] (Dunn's test) is listed as “statistically significant decreases”. In [4] (setting [10]), the “Blood glucose level, 0.25 h post-glucose overload” value turned out to be 94.50 ± 24.31 mg/dL; the “Blood glucose level, 4 h post-glucose overload” value was determined as 87.00 ± 8.60 mg/dL; the “Blood glucose level, pre-glucose overload” value is listed as 86.50 ± 14.62 mg/dL. In data set [4] (setting [11]), the “Blood glucose level, 0.5 h post-glucose overload” value came out at 93.75 ± 19.14 mg/dL; the “Blood glucose level, 2 h post-glucose overload” value is on record as 80.00 ± 10.68 mg/dL; the “Blood glucose level, 6 h post-glucose overload” value amounted to 78.50 ± 16.03 mg/dL. The “Blood glucose level, 3 h post-glucose overload” value in data set [4] (rat, 750 mg/kg referred to metformin base, 3 h post-glucose overload, mean ± SD, *p<0.05, **p<0.01 vs vehicle) is reported as 86.50 ± 2.65 mg/dL. In addition, in [5] (Groups B-K, 250 mg/kg), the “Body weight (g) On administration day” value came to 191.98 ± 10.26 g and the “Body weight (g) On distribution day” value stood at 186.85 ± 11.32 g. Also, the “Body weight (g) On distribution day” value in data set [5] (Groups L-U, 750 mg/kg) was 188.40 ± 10.50 g. For the same compound, the “Body weight (g) On first administration day” value in [5] (setting [12]) is 201.60 ± 5.61 g. Also, the “Body weight (g) On first administration day” value in [5] (setting [13]) was 196.93 ± 10.40 g. Besides, the “Physical form (hygroscopicity)” value in [6] is “Deliquescent”.
As to `CC[C@H](C)[C@H](N)C(=O)O.CN(C)C(=N)NC(=N)N` [Metformin isoleucinate, metformin isoleucinate], in data set [1], the “AUC(0-24)” value is 148.77 µg·h/mL; the “Cmax” value stood at 21430 ng/mL; the “Metformin base concentration in plasma, 0.5 h post-administration” value turned out to be 12.53 ± 1.91 µg/mL; the “Metformin base concentration in plasma, 1 h post-administration” value was 14.47 ± 2.58 µg/mL. For the same compound, in data set [1], the “Metformin base concentration in plasma, 2 h post-administration” value was 10.05 ± 2.33 µg/mL; the “Metformin base concentration in plasma, 4 h post-administration” value came to 21.43 ± 3.35 µg/mL; the “Metformin base concentration in plasma, 8 h post-administration” value was found to be 4.94 ± 0.80 µg/mL; the “Metformin base concentration in plasma, 24 h post-administration” value stood at 0.24 ± 0.08 µg/mL. Further, the “Blood glucose levels before TI/RI administration, Day −3 (before STZ administration)” value in data set [2] (mean ± SD) came to 115.33 ± 4.93 mg/dL. Further, in data set [3], the “Absolute body weight, Day −3 (before STZ administration)” value was 224.63 ± 9.17 g; the “Absolute body weight, Day −1” value was 211.30 ± 7.51 g; the “Absolute body weight, Day −2 (distribution of groups)” value was 225.17 ± 10.85 g. Moreover, the “blood glucose level vs vehicle, before the oral glucose overload” value in [4] (750 mg/kg (referred to metformin base) once a day for five days, Dunn's test) is reported as “statistically significant decrease”. For the same compound, the “blood glucose level vs vehicle, after the oral glucose overload” value in data set [4] (Dunn's test) was “statistically significant decreases”. In addition, in [4] (Dunn's test, listed as metformin isoleucinate), the “blood glucose level vs vehicle, after the oral glucose overload” value is recorded as “statistically significant decrease”. Further, in data set [4] (setting [11]), the “Blood glucose level, 0.5 h post-glucose overload” value was 87.75 ± 12.97 mg/dL; the “Blood glucose level, 2 h post-glucose overload” value came out at 76.75 ± 11.44 mg/dL; the “Blood glucose level, 6 h post-glucose overload” value is given as 70.75 ± 17.04 mg/dL. Further, in data set [4] (rat, 750 mg/kg referred to metformin base, 1 h post-glucose overload, mean ± SD, *p<0.05 vs vehicle), the “Blood glucose level, 1 h post-glucose overload” value is reported as 89.75 ± 19.77 mg/dL. For the same compound, the “Blood glucose level, 4 h post-glucose overload” value in data set [4] (setting [10]) came out at 80.50 ± 7.51 mg/dL. Moreover, in data set [5] (Groups B-K, 250 mg/kg), the “Body weight (g) On administration day” value was 197.30 ± 10.62 g and the “Body weight (g) On distribution day” value is listed as 189.10 ± 7.62 g. The “Body weight (g) On distribution day” value in data set [5] (Groups L-U, 750 mg/kg) is reported as 190.40 ± 7.71 g. In addition, the “Body weight (g) On first administration day” value in [5] (setting [12]) is 203.33 ± 5.11 g. Moreover, the “Body weight (g) On first administration day” value in data set [5] (setting [13]) is given as 196.80 ± 11.54 g. In data set [6] (listed as 12. ISOLEUCIN), the “Physical form (hygroscopicity)” value is “Hygroscopic solid”. Besides, the “Physical form (hygroscopicity)” value in [6] (listed as isoleucine) was “hygroscopic”.
In the case of “insulin: insulin, comparator for GLUT4 distribution”, the GLUT4 distribution result in data set [8] is listed as “GLUT4 distribution to the cell membrane increased”.
On to Metformin glycinate, for which the GLUT4 distribution entry in data set [8] was “very intense accumulation of GLUT4 in the perinuclear region and in the plasma membrane”. Also, in [9], the “glucose concentration in myotubes kept in M1 macrophage-conditioned medium” value is recorded as “kept values at “normoglycemic” levels”.
